The text below walks through data of paper PMC5318895, “Inhibition of N1-Src kinase by a specific SH3 peptide ligand reveals a role for N1-Src in neurite elongation by L1-CAM” (Scientific Reports, 2017).

The target of data set [1] is T1, N1-Src (Rattus norvegicus, UniProt Q9WUD9). Nature of the data set: in vitro kinase assay, N1-Src phosphorylation of GST-Y-PDN substrates. It is filed as biochemical. Details: His; made in house; host or cells: E. coli. As to conditions: PDN1 fused to an ideal Src substrate. The protocol: Figure 1 Identification of a novel ligand consensus sequence for the N1-Src SH3 domain. (a) Schematic of the kinase assay used to validate the effect of potential SH3 domain ligands on the phosphorylation of an ideal tyrosine motif (Y in bold) located upstream of a 10 aa linker and 12 aa phage peptide. (b) GST-Y-PDN1–6 substrates at 0.3, 0.9, 2.8 or 8.3 μM were phosphorylated in vitro with 5 nM C- or N1-Src at 30 °C and the phosphorylation detected by anti-phosphotyrosine immunoblot. Immunoblots are representative of three independent experiments. (c) Alignment of the phage display peptides ranked by N1-Src selectivity derived from results in (b). Shaded residues represent the common consensus sequence. […] (e) GST-Y-PDN1 substrates with the indicated point mutations (see insert) at 8.3 μM were phosphorylated by 5 nM N1-Src and the extent of phosphorylation was measured by densitometry of phosphotyrosine immunoreactivity. […]
The PDN peptides were tested for specificity for the N1-Src SH3 domain using a kinase assay in which a GST fusion of an ideal Src substrate peptide (Y) and a putative SH3 ligand peptide can distinguish SH3 domain specificity (Fig. 1a). Based on our previous study, we chose a range of substrate concentrations at which an enhancement in phosphorylation by docking to canonical peptide ligands for the C-Src SH3 domain can be detected (8.3 μM and below)[12]. […]

Data set [2] addresses T1, N1-Src. In words: inhibition of N1-Src phosphorylation of GST-Y by free soluble peptide. It is filed as biochemical. Details: His; made in house; host or cells: E. coli. As to conditions: free soluble peptide titrated with 5 nM N1-Src and GST-Y; phosphotyrosine immunoblot densitometry; n = 3. Here is the method:
Previous studies have shown that soluble SH3 ligands can enhance Src family kinase activity in vitro[20][21]. […] This experiment raised the possibility that PDN1 could act as an N1-Src inhibitor in cells. […] We observed that COS7 cells transfected with N1-Src-FLAG underwent a striking change in morphology within 48 h (Fig. 3a). Similar to that previously observed in Xenopus epithelial cells, overexpression of the kinase induced the growth of neurite-like processes (Fig. 3b) and an approximate 35% reduction in area of the cell soma (Fig. 3c). […] Using cell morphology as a readout, we assessed the effect of CFP-PDN1 and PDN1(P5A) on N1-Src activity in cells. […] We also assessed the effect of PDN1 on N2-Src expressing cells because the first five amino acids of its SH3 insert are identical to that in N1-Src[3].
Figure 2 PDN1 inhibits N1-Src activity in vitro. GST-Y was incubated with 5 nM N1-Src and the indicated concentrations of either PDN1 or PDN1(P5A) and the extent of phosphorylation determined by densitometry of phosphotyrosine immunoreactivity. […]
Phosphorylation reactions were performed as previously described, prepared in kinase reaction buffer (100 mM Tris, 10 mM MgCl2, pH 7.5) and initiated by the addition of pre-warmed ATP (0.5 mM final concentration) and incubated at 30 °C for the indicated times. […] Due to the non-quantitative measurement of V, Vmax was not determined. […]
Background: In western blotting, separated proteins are transferred to a membrane and probed.

In another data set the test system is C-Src SH3 domain. The conditions noted are these: cited from earlier work. An excerpt: The PDN1 consensus motif, RxPxxTxK, represents a novel SH3 ligand and lacks a canonical PxxP, thus confirming the six amino acid N1-Src splice insert has a dramatic effect on the structure of its SH3 domain. The ligand binding site in the majority of SH3 domains, including C-Src, comprises three pockets, two of which interact with the core xP motifs and one that adds specificity through binding flanking residues. […] Indeed, one of the few ...

The test system of data set [3] is N1-Src. In words: isoform specificity of N1-Src shRNA co-expressed with C-, N1- or N2-Src in COS7 cells. The data set is classed as cell-based, rat. The conditions noted are these: COS7, co-transfected 72 h with C-, N1- or N2-Src-FLAG; anti-FLAG immunoblot.
Another data set deals with hippocampal neurons. Nature of the data set: neurite growth of hippocampal neurons after N1-Src shRNA knockdown. The data set is classed as cell-based, rat. As to conditions: pSUPER-GFP shRNA, 48 h and 96 h post-transfection, versus empty plasmid or non-targeting shRNA, n = 90 neurons, Kruskal-Wallis. Here is the method: We next took advantage of the specificity of PDN1 to investigate the role of endogenous N1-Src in neurite outgrowth in cultured neurons. CFP-PDN1 or -PDN1(P5A) was transfected into 1 DIV CGNs and their morphology analysed after […]. During CGN development in vivo and immediately after plating in vitro, the cells grow two processes before polarising to yield a single axon and the second process retracts to become a dendrite and further dendrites are initiated. The axon then extends further before bifurcating. […] To further confirm that N1-Src regulates neurite growth we employed an shRNA expressing plasmid (pSUPER-GFP) to knockdown N1-Src in neurons. […] The successful N1-Src shRNA plasmid was transfected into hippocampal neurons, and the length of the longest neurite in GFP-positive neurons was assessed at 48 h and 96 h post-transfection. […] Thus, perturbing N1-Src activity with PDN1 or knockdown of the protein produces the same neurite phenotype in primary neuronal cultures.
Figure 5 Knockdown of N1-Src phenocopies the action of PDN1 in cultured neurons. […] (c,d) Cultured hippocampal neurons transfected with pSUPER-GFP (control) or pSUPER-GFP encoding N1-Src specific shRNA were analysed for length of longest neurite at 48 or 96 h. […] Data were normalised to the 48 h control and plotted as mean ± SEM, n = 90 neurons, with 30 cells analysed per condition in 3 independent experiments. […]

Regarding “WHRMPAYTAKYP [PDN1, 12mer peptide derived from a phage display screen of the N1-Src SH3 domain]”, at N1-Src [1], the “enhancement of substrate phosphorylation by N1-Src” value was “enhanced the specific in vitro phosphorylation of an ideal substrate by N1-Src”. In addition, the “inhibition of GST-Y phosphorylation” value at N1-Src [2] was “inhibited GST-Y phosphorylation in a dose dependent manner”.
Consider “RSLRPLPPLPPRPPF [phage display ligand selected by the PI3-kinase SH3 domain]”, for which the “binding to the C-Src SH3 domain” value in the data set with C-Src SH3 domain was “did not bind the C-Src SH3 domain”.
With “5′-GGAAGGTGGATGTCAGAGA-3′ (expressed or natural sequence; target site or template, no part of the molecule) [N1-Src shRNA]”, the “isoform specificity of knockdown” value with N1-Src [3] is “confirmed isoform specificity”. In the data set on hippocampal neurons, the “inhibition of neurite growth (length of longest neurite)” value is “significant time-dependent inhibition of neurite growth”.
